Laboratory results: patent US7507739B2, “6-[(substituted)phenyl]triazolopyrimidines as anticancer agents” (Wyeth, priority 2003, dated 2009)

Columns and labels:
HeLa cells = assay: Cell cycle analysis with HeLa cells; type: cell-based, human; settings: 18 hr
Protocol: HeLa cells are harvested by trypsinization, washed, counted and distributed to wells of 12-well plates at 125,000 cells per well in 2 mL medium. Cells are cultured overnight. […] Cells are continued in culture for 18 hr after compound addition, then cells in each well are harvested (taking care to recover both adherent and non-adherent cells) and processed using the CycleTEST PLUS kit (Becton Dickinson Immunocytometry Systems, San Jose, Calif.). Flow cytometry is done with a FACSort instrument (Becton Dickinson).
This procedure measures the percentages of cells in a population that are in the G1, S, and G2/M phases of the cell cycle. It utilizes staining of cell nuclei with propidium iodide and analysis by flow cytometry.

pure tubulin = assay: Tubulin polymerization test with pure tubulin without GTP; type: biochemical, bovine; settings: no GTP
Protocol: Medium is RPMI-1640 with L-glutamine, supplemented with 10% heat-inactivated fetal calf serum, 100 units/ml penicillin, and 100 μg/ml streptomycin (Gibco, Grand Island, N.Y.). Microtubule-associated protein (MAP)-rich tubulin, containing about 70% tubulin and 30% MAPs (#ML113), and highly purified tubulin (>99% pure, #TL238), both from bovine brain, are obtained from Cytoskeleton, Inc., Denver, Colo. PEM buffer (80 mM piperazine-N,N′-bis[2-ethanesulfonic acid], pH 6.9, 1 mM ethylene glycol-bis(β-aminoethyl ether)-N,N,N′,N′-tetraacetic acid, 1 mM magnesium chloride) and guanosine 5′-triphosphate (GTP) are also obtained from Cytoskeleton. [3H]paclitaxel, specific activity 14.7 Ci/mmol, is purchased from Moravek Biochemicals (Brea, Calif.). [^3H]vinblastine, specific activity 9.60 Ci/mmol and MicroSpin G-50 columns are obtained from Amersham Biosciences (Piscataway, N.J.). […] Other reagents are obtained from Sigma (St. Louis, Mo.).
Two variations of this procedure are done, one using MAP-rich tubulin and one using pure tubulin.
The procedure with pure tubulin is similar except for the following changes. […] The supernatant after centrifugation is dispensed to a 96-well plate already containing compounds. Each compound is tested in duplicate at six serial 3-fold dilutions starting at 24.3 μM. The plate reader is thermostated at 35°.

COLO 205 cells = assay: MTS cytotoxicity test with COLO 205 cells; type: cell-based, human; settings: Homo sapiens, COLO 205, 72 h, 3 days
Protocol: The assay, which is sold in kit form by Promega (Madison, Wis.; CellTiter 96 AQueous Non-Radioactive Cell Proliferation Assay), is based on the conversion by viable cells, but not by dead cells, of the tetrazolium salt, MTS (3-(4,5-dimethylthiazol-2-yl)-5-(3-carboxymethoxyphenyl)-2-(4-sulphophenyl)-2H-tetrazolium, inner salt), into a water-soluble colored formazan which is detected by spectrophotometry. Compounds are tested at nine concentrations, in order to determine IC50 values. For the test procedure, cells are harvested by trypsinization (or, in the case of non-adherent cells, by simple resuspension), washed, counted and distributed to wells of 96-well flat-bottom microtiter plates at 1000 cells per well in 200 μL of medium. In addition, one row of wells on a separate plate received cells as above (“time 0” plate). All plates are incubated at 37° in humidified 5% CO2 in air for about 24 hr.
On day 2, compounds for test are diluted and added to wells. Compounds are dissolved in DMSO at 10 mg/mL. For each compound, nine serial 2-fold dilutions are prepared in DMSO. Ten μL of each dilution in DMSO is transferred to 100 μL of medium, mixed well, and then 5 μL of this dilution is transferred in quadruplicate to wells containing cells. The final high concentration of each compound is typically 5 μM. Plates are returned to the incubator for three days. At the time of drug addition to the experimental plates, the MTS assay is run on the “time 0” plate. This produced the “time 0 MTS value” which is related to the number of viable cells per well at the time of drug addition.
After three days of culture with test compounds (day 5 overall), the MTS assay is done on all wells of the experimental plates. The absorbance values of the quadruplicate sample wells are averaged and divided by the average of the “time 0” values. The average of control wells without drug, divided by the average “time 0” value, gave the maximal relative increase in MTS color yield due to cell growth during the final three days of culture. The average of control wells with high drug concentration, divided by the “time 0” value, gave the minimal relative color yield for cells that are completely killed. The nine values for each compound are plotted against concentration, and the concentration that produced a relative color yield half way between the maximum and minimum is taken as the IC50 value.
COLO 205 is a human colon carcinoma cell line that is used for comparative testing of the examples of this invention and several reference compounds. This line is sensitive to paclitaxel and vincristine.

## COc1cc2c(c(OC)c1OC)-c1ccc(OC)c(=O)cc1[C@@H](NC(C)=O)CC2 [Colchicine, reference compound]
HeLa cells; 5 nM
  Percent in Cell Cycle Phase >4N: 2%
  Percent in Cell Cycle Phase Apop: 6%
  Percent in Cell Cycle Phase G1: 60%
  Percent in Cell Cycle Phase G2/M: 16%
  Percent in Cell Cycle Phase S: 17%
HeLa cells; 10 nM
  Percent in Cell Cycle Phase >4N: 2%
  Percent in Cell Cycle Phase Apop: 7%
  Percent in Cell Cycle Phase G1: 59%
  Percent in Cell Cycle Phase S: 16%
HeLa cells; 15 nM
  Percent in Cell Cycle Phase >4N: 2%
  Percent in Cell Cycle Phase Apop: 9%
  Percent in Cell Cycle Phase G1: 50%
  Percent in Cell Cycle Phase G2/M: 23%
  Percent in Cell Cycle Phase S: 17%
HeLa cells; 17.5 nM
  Percent in Cell Cycle Phase >4N: 2%
  Percent in Cell Cycle Phase Apop: 9%
  Percent in Cell Cycle Phase G1: 51%
  Percent in Cell Cycle Phase G2/M: 21%
HeLa cells; 20 nM
  Percent in Cell Cycle Phase >4N: 2%
  Percent in Cell Cycle Phase Apop: 13%
  Percent in Cell Cycle Phase G1: 40%
  Percent in Cell Cycle Phase G2/M: 28%
HeLa cells; 25 nM
  Percent in Cell Cycle Phase >4N: 3%
  Percent in Cell Cycle Phase Apop: 14%
  Percent in Cell Cycle Phase G1: 36%
  Percent in Cell Cycle Phase G2/M: 27%
  Percent in Cell Cycle Phase S: 20%
HeLa cells; 30 nM
  Percent in Cell Cycle Phase >4N: 3%
  Percent in Cell Cycle Phase Apop: 14%
  Percent in Cell Cycle Phase G1: 27%
  Percent in Cell Cycle Phase G2/M: 36%
  Percent in Cell Cycle Phase S: 20%
HeLa cells; 40 nM
  Percent in Cell Cycle Phase >4N: 4%
  Percent in Cell Cycle Phase Apop: 11%
  Percent in Cell Cycle Phase G1: 16%
  Percent in Cell Cycle Phase G2/M: 48%
  Percent in Cell Cycle Phase S: 22%
HeLa cells; 50 nM
  Percent in Cell Cycle Phase >4N: 4%
  Percent in Cell Cycle Phase Apop: 11%
  Percent in Cell Cycle Phase G1: 11%
  Percent in Cell Cycle Phase G2/M: 56%
HeLa cells; 100 nM
  Percent in Cell Cycle Phase >4N: 3%
  Percent in Cell Cycle Phase Apop: 15%
  Percent in Cell Cycle Phase G1: 11%
  Percent in Cell Cycle Phase G2/M: 55%
  Percent in Cell Cycle Phase S: 16%

## CC(=O)O[C@@]12CO[C@@H]1C[C@H](O)[C@@]1(C)C(=O)[C@H](O)C3=C(C)[C@@H](OC(=O)[C@H](O)[C@@H](NC(=O)OC(C)(C)C)c4ccccc4)C[C@@](O)([C@@H](OC(=O)c4ccccc4)[C@H]21)C3(C)C [Docetaxel, reference compound]
Pure tubulin; 0.1 μM
  absorbance increase, polymerization of pure tubulin: small increase in absorbance
Pure tubulin; 24.3 μM
  A340 at 0 min: 0
  A340 at 5 min: 0.20
  A340 at 10 min: 0.20
  A340 at 15 min: 0.20
  A340 at 20 min: 0.20
Pure tubulin; 24.3 μM, first 5 min
  absorbance increase, polymerization of pure tubulin: rapid increase in absorbance
HeLa cells; 0.25 nM
  Percent in Cell Cycle Phase >4N: 2%
  Percent in Cell Cycle Phase Apop: 8%
  Percent in Cell Cycle Phase G1: 58%
  Percent in Cell Cycle Phase G2/M: 16%
  Percent in Cell Cycle Phase S: 17%
HeLa cells; 0.5 nM
  Percent in Cell Cycle Phase >4N: 2%
  Percent in Cell Cycle Phase Apop: 19%
  Percent in Cell Cycle Phase G1: 48%
  Percent in Cell Cycle Phase G2/M: 14%
  Percent in Cell Cycle Phase S: 18%
HeLa cells; 1 nM
  Percent in Cell Cycle Phase >4N: 2%
  Percent in Cell Cycle Phase Apop: 35%
  Percent in Cell Cycle Phase G1: 35%
  Percent in Cell Cycle Phase G2/M: 14%
  Percent in Cell Cycle Phase S: 15%
HeLa cells; 2 nM
  Percent in Cell Cycle Phase >4N: 2%
  Percent in Cell Cycle Phase Apop: 48%
  Percent in Cell Cycle Phase G1: 19%
  Percent in Cell Cycle Phase G2/M: 14%
  Percent in Cell Cycle Phase S: 18%
HeLa cells; 3 nM
  Percent in Cell Cycle Phase >4N: 2%
  Percent in Cell Cycle Phase Apop: 52%
  Percent in Cell Cycle Phase G1: 15%
  Percent in Cell Cycle Phase G2/M: 14%
  Percent in Cell Cycle Phase S: 17%
HeLa cells; 4 nM
  Percent in Cell Cycle Phase >4N: 2%
  Percent in Cell Cycle Phase Apop: 49%
  Percent in Cell Cycle Phase G1: 12%
  Percent in Cell Cycle Phase G2/M: 22%
  Percent in Cell Cycle Phase S: 16%
HeLa cells; 5 nM
  Percent in Cell Cycle Phase >4N: 3%
  Percent in Cell Cycle Phase Apop: 42%
  Percent in Cell Cycle Phase G1: 9%
  Percent in Cell Cycle Phase G2/M: 31%
  Percent in Cell Cycle Phase S: 17%
HeLa cells; 6 nM
  Percent in Cell Cycle Phase >4N: 4%
  Percent in Cell Cycle Phase Apop: 37%
  Percent in Cell Cycle Phase G1: 10%
  Percent in Cell Cycle Phase G2/M: 33%
  Percent in Cell Cycle Phase S: 17%
HeLa cells; 8 nM
  Percent in Cell Cycle Phase >4N: 4%
  Percent in Cell Cycle Phase Apop: 29%
  Percent in Cell Cycle Phase G1: 7%
  Percent in Cell Cycle Phase G2/M: 48%
  Percent in Cell Cycle Phase S: 11%
HeLa cells; 10 nM
  Percent in Cell Cycle Phase >4N: 4%
  Percent in Cell Cycle Phase Apop: 35%
  Percent in Cell Cycle Phase G1: 9%
  Percent in Cell Cycle Phase G2/M: 37%
  Percent in Cell Cycle Phase S: 16%
HeLa cells; 20 nM
  Percent in Cell Cycle Phase >4N: 3%
  Percent in Cell Cycle Phase Apop: 38%
  Percent in Cell Cycle Phase G1: 8%
  Percent in Cell Cycle Phase G2/M: 40%
  Percent in Cell Cycle Phase S: 12%

## C[C@H](Nc1c(-c2c(F)cc(OCCCN)cc2F)c(Cl)nc2ncnn12)C(F)(F)F [Example 5, 6-[4-(3-Aminopropoxy)-2,6-difluorophenyl]-5-chloro-N-[(1S)-2,2,2-trifluoro-1-methylethyl][1,2,4]triazolo[1,5-a]pyrimidin-7-amine]
COLO 205 cells
  IC50: 452 nM

## C[C@H](Nc1c(-c2c(F)cc(OCCCN3CCOCC3)cc2F)c(Cl)nc2ncnn12)C(F)(F)F [Example 11, 5-Chloro-6-[2,6-difluoro-4-(3-morpholin-4-ylpropoxy)phenyl]-N-[(1S)-2,2,2-trifluoro-1-methylethyl][1,2,4]triazolo[1,5-a]pyrimidin-7-amine]
COLO 205 cells
  IC50: 89 nM

## C[C@H](Nc1c(-c2c(F)cc(OCCO)cc2F)c(Cl)nc2ncnn12)C(F)(F)F [Example 19, 2-[4-(5-Chloro-7-{[(1S)-2,2,2-trifluoro-1-methylethyl]amino}[1,2,4]triazolo[1,5-a]pyrimidin-6-yl)-3,5-difluorophenoxy]ethanol]
COLO 205 cells
  IC50: 422 nM

## C[C@H](Nc1c(-c2c(F)cc(OCCCCO)cc2F)c(Cl)nc2ncnn12)C(F)(F)F [Example 21, 4-[4-(5-Chloro-7-{[(1S)-2,2,2-trifluoro-1-methylethyl]amino}[1,2,4]triazolo[1,5-a]pyrimidin-6-yl)-3,5-difluorophenoxy]butan-1-ol]
COLO 205 cells
  IC50: 151 nM

## C[C@H](Nc1c(-c2c(F)ccc(OCCN(C)C)c2F)c(Cl)nc2ncnn12)C(F)(F)F [Example 27, 5-Chloro-6-{3-[2-(dimethylamino)ethoxy]-2,6-difluorophenyl}-N-[(1S)-2,2,2-trifluoro-1-methylethyl][1,2,4]triazolo[1,5-a]pyrimidin-7-amine]
COLO 205 cells
  IC50: 1570 nM

## C[C@H](Nc1c(-c2c(F)ccc(OCCCN(C)C)c2F)c(Cl)nc2ncnn12)C(F)(F)F [Example 28, 5-Chloro-6-{3-[3-(dimethylamino)propoxy]-2,6-difluorophenyl}-N-[(1S)-2,2,2-trifluoro-1-methylethyl][1,2,4]triazolo[1,5-a]pyrimidin-7-amine]
COLO 205 cells
  IC50: 785 nM
